Assay results taken from patent publication US4244965A, “Azetidinoyl ethers” (Beecham Group Limited, priority 1978, dated 1981).
In brackets after ≈: the same amount, converted by molar mass. Several values for one entry are separate records, joined by “and”; a condition that tells them apart may be missing. Identical values can stand only once. Like-named read-outs stand apart in the source and are kept apart here. One block for each compound: values may come before it.

Columns and labels:
[1] = Urinary recovery after oral administration to dogs (Demonstration 6); type: in vivo; settings: for dose excreted at 24 h: dog, urine, po, 5 mg/kg
Procedure: (§1) Lithium 9-O-(azetidin-2'-on-4'-yl)clavulanate was administered orally to a group of eight dogs, weighing 9-12 kg, at a dosage of 5 mg/kg.
The urinary recovery of the compound over 24 hours was also measured.

[2] = Average blood levels after oral administration to dogs (Demonstration 6); type: in vivo; settings: dog, 5 mg/kg
Procedure: as §1
The level of the compound in the blood was measured after 0.25, 0.5, 1, 2, 4 and 6 hours. The results are shown in Table 1, with those for sodium clavulanate for comparison.

Pseudomonas Dalgleish = assay: microbe, parasite or virus in culture; type: cell-based
Procedure: (§2) a. The antibacterial and synergistic activity of the title compound (referred to as "Sunergist" in the Table) was determined by a conventional microliter method.

Escherichia coli JT39 [3] = assay: standard MIC test (Demonstration 1c); type: cell-based
Proteus C 889 [4] = assay: conventional microliter method, MIC (Demonstration 2a); type: cell-based
Procedure: as §2

E. coli JT 39 [5] = assay: as above; type: cell-based; settings: Escherichia coli, JT39
Procedure: as §2

E. coli JT 410 [6] = assay: standard microliter MIC test (Demonstrations 3-5); type: cell-based
Kleb E 70 = assay: standard microliter MIC test (Demonstrations 3-5); type: cell-based, Klebsiella
E. coli JT 39 [7] = assay: standard microliter MIC test (Demonstrations 3-5); type: cell-based; settings: for MIC: alone
Staph. aureus Russell = assay: standard MIC test (Demonstration 1c); type: cell-based; settings: Staphylococcus aureus
Proteus C 889 [8] = assay: standard microliter MIC test (Demonstrations 3-5); type: cell-based; settings: for MIC: alone; for MIC (ampicillin + title compound): trailing end point
Staph Russell = assay: standard microliter MIC test (Demonstrations 3-5); type: cell-based; settings: for MIC: alone
Escherichia coli JT39 [9] = assay: Amoxycillin with or without synergist, E. coli JT39 intraperitoneal infection of mice, oral (Demonstration 1b); type: in vivo, Escherichia coli (infected mice); settings: antibiotic alone, oral, 1, 3 and 5 hours post-infection, read-out: CD50 (the source's name)
Procedure: (§3) b. Oral administration: Groups of mice were infected inter peritoneally with Escherichia coli JT39. At 1, 3 and 5 hours post-infection the mice were treated with amoxycillin or with amoxycillin and synergist. The solutions were made up in phosphate buffer.

Escherichia coli JT 39 = assay: intra peritoneal infection due to Escherichia coli JT 39 in mice, subcutaneous dosing (Demonstration 2b); type: in vivo, Escherichia coli (infected mice); settings: for ED50: Escherichia coli, JT39, sc, alone, × 2, sub-cutaneous, 1 and 5 hours post infection, read-out: C50
Procedure: b. […] Dosing was sub-cutaneous and 1 and 5 hours post infection.

Escherichia coli JT39 [10] = assay: Amoxycillin with or without synergist, E. coli JT39 intraperitoneal infection of mice, subcutaneous (Demonstration 1a); type: in vivo, Escherichia coli (infected mice); settings: JT39, sc, antibiotic alone, sub-cutaneous, 1 and 5 hours post infection, read-out: CD50 (the source's name)
Procedure: (§4) a. Sub-cutanvenous administration: Groups of mice were infected inter peritoneally with Escherichia coli JT39. At 1 and 5 hours post infection the mice were treated with amoxycillin (Amox.) or with amoxycillin and synergist. The solutions were made up in phosphate buffer.

Staph. Russell = assay: conventional microliter method, MIC (Demonstration 2a); type: cell-based; settings: alone
Procedure: as §2

E. coli JT 410 [11] = assay: as above; type: cell-based; settings: Escherichia coli, JT410; alone
Procedure: as §2

Kleb. E 70 = assay: as above; type: cell-based; settings: Klebsiella; alone
Procedure: as §2

[12] = tested on: gram negative bacteria such as Escherichia and Klebsiella and gram positive bacteria such as Staphylococcus; assay: Summary of the synergy tests with penicillins (Demonstration 1d); settings: summary of preceding tests
Procedure: as §4, with “buffer. The results were as follows:” for “buffer.”
as §3

[13] = Signs of drug toxicity during the in-vivo tests (Demonstration 1); settings: mice
Procedure: as §4, with “buffer. The results were as follows:” for “buffer.”
as §3

Klebsiella E70 = assay: standard MIC test (Demonstration 1c); type: cell-based; settings: alone
[14] = Escherichia coli, JT410, alone, read-out: MIC
[15] = Klebsiella, E70, alone, read-out: MIC
[16] = Escherichia coli, JT39, read-out: MIC

SMILES: O=C1CC(OC/C=C2\O[C@@H]3CC(=O)N3[C@H]2C(=O)O)N1 (some centres unmarked) [Example 27, Lithium 9-O-(2'-oxoazetidin-4'-yl)-clavulanate]
Urinary Recovery ([1]; 0-6 hour, Dog No. 1, 5 mg/kg): 10.8 mg
Urinary Recovery ([1]; 0-6 hour, Dog No. 2, 5 mg/kg): 14.8 mg
Urinary Recovery ([1]; 0-6 hour, Dog No. 3, 5 mg/kg): 13.1 mg
Urinary Recovery ([1]; 0-6 hour, Dog No. 4, 5 mg/kg): 29.5 mg
Urinary Recovery ([1]; 0-6 hour, Dog No. 5, 5 mg/kg): 18.5 mg
Urinary Recovery ([1]; 0-6 hour, Dog No. 6, 5 mg/kg): 9.2 mg
Urinary Recovery ([1]; 0-6 hour, Dog No. 7, 5 mg/kg): 9.25 mg
Urinary Recovery ([1]; 0-6 hour, Dog No. 8, 5 mg/kg): 12.15 mg
Urinary Recovery ([1]; 0-24 hour, Dog No. 1, 5 mg/kg): 11.7 mg
Urinary Recovery ([1]; 0-24 hour, Dog No. 2, 5 mg/kg): 17.4 mg
Urinary Recovery ([1]; 0-24 hour, Dog No. 3, 5 mg/kg): 18.8 mg
Urinary Recovery ([1]; 0-24 hour, Dog No. 4, 5 mg/kg): 29.9 mg
Urinary Recovery ([1]; 0-24 hour, Dog No. 5, 5 mg/kg): 19.6 mg
Urinary Recovery ([1]; 0-24 hour, Dog No. 6, 5 mg/kg): 10.3 mg
Urinary Recovery ([1]; 0-24 hour, Dog No. 7, 5 mg/kg): 11.1 mg
Urinary Recovery ([1]; 0-24 hour, Dog No. 8, 5 mg/kg): 12.3 mg
dose excreted at 24 h ([1]; Dog No. 1, read-out: Urinary Recovery, % over 24 hour): 20.1%
dose excreted at 24 h ([1]; Dog No. 2, read-out: Urinary Recovery, % over 24 hour): 38.6%
dose excreted at 24 h ([1]; Dog No. 3, read-out: Urinary Recovery, % over 24 hour): 32.1%
dose excreted at 24 h ([1]; Dog No. 4, read-out: Urinary Recovery, % over 24 hour): 52.4%
dose excreted at 24 h ([1]; Dog No. 5, read-out: Urinary Recovery, % over 24 hour): 37.3%
dose excreted at 24 h ([1]; Dog No. 6, read-out: Urinary Recovery, % over 24 hour): 17.2%
dose excreted at 24 h ([1]; Dog No. 7, read-out: Urinary Recovery, % over 24 hour): 19.1%
dose excreted at 24 h ([1]; Dog No. 8, read-out: Urinary Recovery, % over 24 hour): 19.5%
concentration at 0.25 h [2]: 1450 ng/mL
concentration at 0.5 h [2]: 3640 ng/mL
concentration at 1 h [2]: 4780 ng/mL
concentration at 2 h [2]: 3790 ng/mL
concentration at 4 h [2]: 710 ng/mL
concentration at 6 h ([2]; 6 hours): < 200 ng/mL

SMILES: CC1(C)S[C@@H]2[C@H](NC(=O)[C@H](N)c3ccccc3)C(=O)N2[C@H]1C(=O)O [Ampicillin, ampicillin, reference compound]
MIC (Pseudomonas Dalgleish): > 2000 µg/mL
MIC (Escherichia coli JT39 [3]): 2000 µg/mL (≈ 5720 µM)
MIC (Proteus C 889 [4]): 1000 µg/mL
MIC (E. coli JT 39 [5]): 2000 µg/mL
MIC (E. coli JT 410 [6]; Escherichia coli, JT410): 250 µg/mL (≈ 715 µM)
MIC (Kleb E 70; Klebsiella, E70): 1000 µg/mL (≈ 2860 µM)
MIC (Kleb E 70; Klebsiella, E70, alone): 500 µg/mL (≈ 1430 µM)
MIC (E. coli JT 39 [7]; Escherichia coli, JT39): 2000 µg/mL (≈ 5720 µM)
MIC (E. coli JT 39 [7]): 1000 µg/mL (≈ 2860 µM)
MIC (Staph. aureus Russell): 62 µg/mL (≈ 177 µM)
MIC (Proteus C 889 [8]): 2000 µg/mL and > 2000 µg/mL

concentration at 0.25 h [2]: 960 ng/mL
concentration at 0.5 h [2]: 3110 ng/mL
concentration at 1 h [2]: 2910 ng/mL
concentration at 2 h [2]: 1680 ng/mL
concentration at 4 h [2]: 280 ng/mL
SMILES: O=C(O)[C@H]1/C(=C/CO)O[C@@H]2CC(=O)N21 [sodium clavulanate, reference compound]

MIC (E. coli JT 410 [6]; [14]): 62.5 µg/mL (≈ 221 µM)
MIC (Kleb E 70; [15]): 62.5 µg/mL (≈ 221 µM)
MIC (E. coli JT 39 [7]; [16]): 31.2 µg/mL (≈ 110 µM)
MIC (Staph Russell; read-out: MIC): 62.5 µg/mL (≈ 221 µM)
MIC (Proteus C 889 [8]; read-out: MIC): 62.5 µg/mL (≈ 221 µM)
SMILES: N[C@@H]1C(=O)N[C@@H]1OC/C=C1\O[C@@H]2CC(=O)N2[C@H]1C(=O)O [Example 14, 9-O-[(3S,4R)-2'-Oxo-3'-aminoazetidin-4'-yl]-clavulanic acid]

MIC (E. coli JT 410 [6]; [14]): 62.5 µg/mL (≈ 221 µM)
MIC (Kleb E 70; [15]): 62.5 µg/mL (≈ 221 µM)
MIC (E. coli JT 39 [7]; [16]): 62.5 µg/mL (≈ 221 µM)
MIC (Staph Russell; read-out: MIC): 62.5 µg/mL (≈ 221 µM)
MIC (Proteus C 889 [8]; read-out: MIC): 62.5 µg/mL (≈ 221 µM)
SMILES: N[C@@H]1C(=O)N[C@H]1OC/C=C1\O[C@@H]2CC(=O)N2[C@H]1C(=O)O [Example 13, 9-O-[(3S,4S)-2'-Oxo-3'-aminoazetidin-4'-yl]clavulanic acid]

SMILES: CC1(C)S[C@@H]2[C@H](NC(=O)[C@H](N)c3ccc(O)cc3)C(=O)N2[C@H]1C(=O)O [Amoxycillin, amoxycillin]
ED50 (Escherichia coli JT39 [9]): > 1000 mg/kg
ED50 (Escherichia coli JT 39): > 1000 mg/kg
ED50 (Escherichia coli JT39 [10]): > 1000 mg/kg

SMILES: NCC(=O)NCCOCC=C1OC2CC(=O)N2C1C(=O)O (centres unmarked) [9-O-[(N-Glycyl)-2-aminoethyl]clavulanic acid]
MIC (ampicillin + title compound) (E. coli JT 410 [6]; Amp. + 5 μg/ml of title comp.): 62.5 µg/mL
MIC (E. coli JT 410 [6]; alone): 62.5 µg/mL (≈ 209 µM)
MIC (ampicillin + title compound) (Kleb E 70; Amp. + 1 μg/ml of title comp.): 6.25 µg/mL
MIC (ampicillin + title compound) (Kleb E 70; Amp. + 5 μg/ml of title comp.): 1.5 µg/mL
MIC (Kleb E 70; alone): 62.5 µg/mL (≈ 209 µM)
MIC (ampicillin + title compound) (E. coli JT 39 [7]; Amp. + 1 μg/ml of title comp.): 31.2 µg/mL
MIC (ampicillin + title compound) (E. coli JT 39 [7]; Amp. + 5 μg/ml of title comp.): 8 µg/mL
MIC (E. coli JT 39 [7]): 31.2 µg/mL (≈ 104 µM)
MIC (ampicillin + title compound) (Staph Russell; Amp. + 1 μg/ml of title comp.): 1.25 µg/mL
MIC (ampicillin + title compound) (Staph Russell; Amp. + 5 μg/ml of title comp.): 0.15 µg/mL
MIC (Staph Russell): 8 µg/mL (≈ 26.7 µM)
MIC (ampicillin + title compound) (Proteus C 889 [8]; Amp. + 1 μg/ml of title comp.): 8 µg/mL
MIC (ampicillin + title compound) (Proteus C 889 [8]; Amp. + 5 μg/ml of title comp.): 2 µg/mL
MIC (Proteus C 889 [8]): 250 µg/mL (≈ 835 µM)

SMILES: Cc1nnc(SCC2=C(C(=O)O)N3C(=O)[C@@H](NC(=O)Cn4cnnn4)[C@H]3SC2)s1 [Cefazolin]
ED50 (Escherichia coli JT 39): 13 mg/kg

SMILES: CC(NC=O)OC/C=C1\O[C@@H]2CC(=O)N2[C@H]1C(=O)O (some centres unmarked) [Example 9, Lithium 9-O-(1-formamidoethyl)clavulanate]
MIC (Pseudomonas Dalgleish): > 500 µg/mL
MIC (Proteus C 889 [4]; alone, read-out: MIC): 62.5 µg/mL
MIC (Staph. Russell): 8 µg/mL
MIC (E. coli JT 410 [11]): 31.2 µg/mL
MIC (Kleb. E 70): 62.5 µg/mL
MIC (E. coli JT 39 [5]; alone, read-out: MIC): 62.5 µg/mL
effect on the effectiveness of amoxycillin (Escherichia coli JT 39; with amoxycillin, sub-cutaneous): enhance the effectiveness of amoxycillin

SMILES: O=C1CC(OC/C=C2\O[C@@H]3CC(=O)N3[C@H]2C(=O)O)N1 (some centres unmarked) [Example 2, Sodium 9-O-(azetidin-2'-on-4'-yl)clavulanate]
MIC (Escherichia coli JT39 [3]; alone, read-out: MIC): 31.2 µg/mL
synergism with penicillins such as amoxycillin [12]: effective synergist for penicillins such as amoxycillin
MIC (Staph. aureus Russell; alone, read-out: MIC): 8 µg/mL
signs of drug toxicity [13]: No signs of drug toxicity were observed
MIC (Klebsiella E70): 31.2 µg/mL
